Measurements reported in patent US4997834A, “Trans-4-amino(alkyl)-1-pyridylcarbamoylcyclohexane compounds and pharmaceutical use thereof” (priority 1988, dated 1991).

Legend:
ddY strain mice = experiment: Acute toxicity, intraperitoneal, mice; assay type: in vivo
Text: EXPERIMENT OF ACUTE TOXICITY
Each of test compounds of A, B and C was intraperitoneally administered to ddY strain mice.

right vertebral artery = experiment: Effect on vertebral blood flow (perfused right vertebral artery, anesthetized dogs); assay type: in vivo, adult mongrel dogs; conditions: doses 10-100 μg (A); for Effect of vertebral blood flow, ED100: dose giving 100% of the maximum blood flow increase by 100 μg papaverine hydrochloride, 30-100 μg (B, C) into vertebral artery; for Effect of vertebral blood flow, T1/2 (duration of the effects): injection into vertebral artery, 30-100 μg (B, C)
Procedure: PHARMACOLOGICAL EXPERIMENT 3: EFFECT ON VERTEBRAL BLOOD FLOW
Groups of two adult mongrel dogs were anesthetized with the intraveneous administration of 25 mg/kg of body weight of sodium pentobarbital.
The right vertebral artery was perfused and the blood flow volume was measured. Test compound was injected in the vertebral artery. The percentage of maximum increase of blood flow by the injection of 100 μg of papaverine hydrochloride (1-[(3,4-dimethoxyphenyl)methyl]-6,7-dimethoxyisoquinoline hydrochloride) in vertebral artery was taken as 100% . The effects of test compound on vertebral artery were expressed as ED100 (μg), a dose required to obtain 100% of the increase of blood flow. Each of half-life (T 1/2, minute) was measured as the duration of the effects.

left coronary artery = experiment: Effect on coronary blood flow (perfused left coronary artery, anesthetized dogs); assay type: in vivo, adult mongrel dogs; conditions: pentobarbital-anesthetized; for Effect of coronary blood flow, ED50 (in artery): dose increasing coronary blood flow by half of the effect of 3 μg intracoronary nifedipine, test dose 10-300 μg into coronary artery; for Effect of coronary blood flow, T1/2 (duration of effects): injection into coronary artery, 10-300 μg
Procedure: PHARMACOLOGICAL EXPERIMENT 2: EFFECT ON CORONARY BLOOD FLOW
Groups of 2 to 3 adult mongrel dogs were anesthetized with the intraveneous administration of 30 mg/kg of body weight of sodium pentobarbital.
According to the method of Yago et. al. described in Folia Pharmacologica Japonica, vol. 57, p.380 (1961), the left coronary artery was perfused and its blood flow volume was measured. Test compound was injected into the coronary artery at a […] of 10-300 μg. The effects of test compound on coronary blood flow were expressed as ED50 (μg), a dose required to increase the coronary blood flow by a half of the effects of the coronary-artery injection of 3 μg of nifedipine [Dimethyl 2,6-dimethyl-4-(2-nitrophenyl)-1,4-dihydropyridine-3,5-dicarboxylate]. Each of half-life (T 1/2, minute) was measured as the duration of effects.

[1] = system: spontaneously hypertensive rats; experiment: Antihypertensive effect: systolic blood pressure by tail cuff method in spontaneously hypertensive rats; assay type: in vivo, male spontaneously hypertensive rats; conditions: 30 mg/kg orally, measured three hours after administration
Procedure: PHARMACOLOGICAL EXPERIMENT 1: ANTIHYPERTENSIVE EFFECT
Each of 30 mg/kg of test compounds dissolving in 0.5% of hydroxypropyl-methylcellurose was orally administered to groups of 3 to 5 male spontaneously hypertensive rats weighing 350-450 g. Three hours after the administration, the systolic blood pressure was measured by tail cuff method and antihypertensive effects are examined.

[2] = intraperitoneal dose of 100 mg/kg, five days after administration

Question: With `C[C@H]1C[C@H](CN)CC[C@H]1C(=O)Nc1ccncc1` (relative stereo) [Test Compound B, Trans-4-aminomethyl-cis-2-methyl-1-(4-pyridylcarbamoyl)cyclohexane] as the compound, how does the Survival of mice (ddY strain mice; [2]) read?
Answer: All mice survived

Question: What about the “Effect of vertebral blood flow, ED100” value (right vertebral artery) of the same compound?
Answer: 74 µg

Question: What about the “Effect of vertebral blood flow, T1/2 (duration of the effects)” value (from here on “Effect … (duration of the effects)”) (right vertebral artery) of the same compound?
Answer: 4.4 min

Question: What about the “Effect of coronary blood flow, ED50 (in artery)” value (shortened to “Effect … (in artery)”) (left coronary artery) of the same compound?
Answer: 35 µg

Question: What about the “Effect of coronary blood flow, T1/2 (duration of effects)” value (“Effect … (duration of effects)” below) (left coronary artery) of the same compound?
Answer: 4.0 min

Question: And the “Maximum lowering value of systolic blood pressure” value [1]?
Answer: -44 mmHg

Question: How did the Survival of mice (ddY strain mice; mouse, in vivo, ip, 100 mg/kg) turn out when `CC(N)[C@H]1CC[C@H](C(=O)Nc2ccncc2)CC1` (relative stereo) [Test Compound C, Trans-4-(1-aminoethyl)-1-(4-pyridylcarbamoyl)cyclohexane] was run?
Answer: All mice survived

Question: What about the “Effect of vertebral blood flow, ED100” value (right vertebral artery) of the same compound?
Answer: 58 µg

Question: What about the “Effect … (duration of the effects)” value (right vertebral artery) of the same compound?
Answer: 3.0 min

Question: And the “Effect … (in artery)” value (left coronary artery)?
Answer: 34 µg

Question: And the “Effect … (duration of effects)” value (left coronary artery)?
Answer: 3.0 min

Question: What about the “Maximum lowering value of systolic blood pressure” value [1] of the same compound?
Answer: -52 mmHg

Question: With `NC[C@H]1CC[C@H](C(=O)Nc2ccncc2)CC1` [Test Compound A, Trans-4-aminomethyl-1-(4-pyridylcarbamoyl)cyclohexane] as the compound, how does the Survival of mice (ddY strain mice; [2]) read?
Answer: All mice survived

Question: What about the “Effect of vertebral blood flow, ED100” value (right vertebral artery) of the same compound?
Answer: 35 µg

Question: And the “Effect … (duration of the effects)” value (right vertebral artery)?
Answer: 2.1 min

Question: And the “Effect … (in artery)” value (left coronary artery)?
Answer: 56 µg

Question: What about the “Effect … (duration of effects)” value (left coronary artery) of the same compound?
Answer: 1.7 min
